No end group written: not given here.

In one assay the test system is Pseudomonas aeruginosa (ATCC 27853). Briefly: Minimum bactericidal concentration (MBC) assay. Also noted: MBC Pseudomonas aeruginosa: unit: µg/mL. It is filed as cell-based. The note with it: Tables 11-21, no unit printed. The procedure, abridged: (§1)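 A 1 h killing step at 37° C in 10 mM sodium phosphate with 1% TSB exposes 1×10^5 CFU/ml of each strain to peptide across 0–300 μg/ml. The lowest peptide concentration leaving no colonies after 18 h on TS agar defines the MBC.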
Substance “KKMMKKGGKFGTFMAIGMG-R [Peptide 5878-K4-d77I]” gave an MBC Pseudomonas aeruginosa of 4 µg/mL.

As for “KKMMKKGGKFGTFMAIGMGI- [Peptide 5878-K4-78R]”, the MBC Pseudomonas aeruginosa is 4 µg/mL.

With “KKMMKKGGTFGTFMAIGMGIR [KU-5878-K3 (T59K, Q62K, S63K)]”, the MBC Pseudomonas aeruginosa was determined as 4 µg/mL.

With “KKMMKSGGTFGTFMAIGMGIR [KU-5878-K2(T59K, Q62K)]”, the MBC Pseudomonas aeruginosa came out at 8 µg/mL.

Substance KKMMQSGGTFGTFMAIGMGIR [KU-5878-T59K] yielded an MBC Pseudomonas aeruginosa of 50 µg/mL.

In turn, “KT-MQSGGTFGTFMAIGMGIR [Peptide 5878-d60M]” had an MBC Pseudomonas aeruginosa of 90 µg/mL.

For “KTMM-SGGTFGTFMAIGMGIR [Peptide 5878-4620]”, the MBC Pseudomonas aeruginosa was found to be 100 µg/mL.

Consider “KTMMQS-GTFGTFMAIGMGIR [Peptide 5878-d64G]”, for which the MBC Pseudomonas aeruginosa was 100 µg/mL.

In the case of “KTMMQSGG-FGTFMAIGMGIR [Peptide 5878-d66T]”, the MBC Pseudomonas aeruginosa was found to be 90 µg/mL.

“KTMMQSGGTF-TFMAIGMGIR [Peptide 5878-d68G]” yielded an MBC Pseudomonas aeruginosa of 25 µg/mL.

In turn, “KTMMQSGGTFGTFMAI-MGIR [Peptide 5878-d74G]” displayed an MBC Pseudomonas aeruginosa of 20 µg/mL.

“KTMMQSGGTFGTFMAIG-GIR [Peptide 5878-d75M]” registered an MBC Pseudomonas aeruginosa of 100 µg/mL.

“KTMMQSGGTFGTFMAIGM-IR [Peptide 5878-d76G]” displayed an MBC Pseudomonas aeruginosa of 80 µg/mL.

Consider “KTMMQSGGTFGTFMAIGMGIRKK [Peptide 5878-KK]”, for which the MBC Pseudomonas aeruginosa stood at 15 µg/mL.

The substance “KTMMQSGGTFGTFMAIGMGIRRRR [Peptide 5878-3R]” returned an MBC Pseudomonas aeruginosa of 8 µg/mL.

Consider TKMMKKGGKFGTFMAIGMGIR [Peptide K4-K58T], for which the “MBC Pseudomonas aeruginosa” value is reported as 3.

The subject of the next assay is Methicillin-resistant Staphylococcus aureus (MRSA, ATCC 33591). Briefly: Minimum bactericidal concentration (MBC) assay. The note with it: Tables 11-21, no unit printed. It is filed as cell-based. Further details: unit: µg/mL. A digest of the protocol: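 Peptide at 0 to 300 μg/ml reacted 1 h at 37 °C with 1×10^5 CFU/ml bacteria in SP buffer (10 mM sodium phosphate, 1% TSB), bacteria pre-grown in 3% TSB. Aliquots then spread on TS agar and checked for colonies after 18 h at 37 °C.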
Consider “KKMMKKGGKFGTFMAIGMG-R [Peptide 5878-K4-d77I]”, for which the MBC MRSA amounted to 4 µg/mL.

On to “KKMMKKGGKFGTFMAIGMGI- [Peptide 5878-K4-78R]”, for which the MBC MRSA is 4 µg/mL.

“KKMMKKGGTFGTFMAIGMGIR [KU-5878-K3 (T59K, Q62K, S63K)]” gave an MBC MRSA of 5 µg/mL.

The substance “KKMMKSGGTFGTFMAIGMGIR [KU-5878-K2(T59K, Q62K)]” showed an MBC MRSA of 8 µg/mL.

KKMMQSGGTFGTFMAIGMGIR [KU-5878-T59K] displayed an MBC MRSA of 50 µg/mL.

As for “KT-MQSGGTFGTFMAIGMGIR [Peptide 5878-d60M]”, the MBC MRSA amounted to 100 µg/mL.

Turning to “KTMM-SGGTFGTFMAIGMGIR [Peptide 5878-4620]”, the MBC MRSA is 100 µg/mL.

“KTMMQS-GTFGTFMAIGMGIR [Peptide 5878-d64G]”: the MBC MRSA came out at 100 µg/mL.

Turning to “KTMMQSGG-FGTFMAIGMGIR [Peptide 5878-d66T]”, the MBC MRSA amounted to 90 µg/mL.

Substance “KTMMQSGGTF-TFMAIGMGIR [Peptide 5878-d68G]” came in with an MBC MRSA of 25 µg/mL.

On to “KTMMQSGGTFGTFMAI-MGIR [Peptide 5878-d74G]”, for which the MBC MRSA stood at 25 µg/mL.

“KTMMQSGGTFGTFMAIG-GIR [Peptide 5878-d75M]” registered an MBC MRSA of 110 µg/mL.

Take “KTMMQSGGTFGTFMAIGM-IR [Peptide 5878-d76G]”: the MBC MRSA is 90 µg/mL.

In the case of “KTMMQSGGTFGTFMAIGMGIRKK [Peptide 5878-KK]”, the MBC MRSA was 16 µg/mL.

With “KTMMQSGGTFGTFMAIGMGIRRRR [Peptide 5878-3R]”, the MBC MRSA was 10 µg/mL.

For the substance TKMMKKGGKFGTFMAIGMGIR [Peptide K4-K58T], the “MBC MRSA” value was determined as 4.

The subject of a further assay is Pseudomonas aeruginosa, Staphylococcus aureus, CRPA, MRSA. Briefly: Increase in antibacterial activity (MBC) compared with KU-5878. It is filed as cell-based. The note with it: mark = antibacterial activity increased compared with KU-5878.
Turning to “KKMMKKGGKFGTFMAIGMG-R [Peptide 5878-K4-d77I]”, the Increase in activity entry is listed as “◯”.

For the substance “KKMMKKGGKFGTFMAIGMGI- [Peptide 5878-K4-78R]”, the Increase in activity entry is listed as “◯”.

In the case of “KKMMKKGGTFGTFMAIGMGIR [KU-5878-K3 (T59K, Q62K, S63K)]”, the Increase in activity result is on record as “◯”.

As for “KKMMKSGGTFGTFMAIGMGIR [KU-5878-K2(T59K, Q62K)]”, the Increase in activity result is listed as “◯”.

For the substance KKMMQSGGTFGTFMAIGMGIR [KU-5878-T59K], the Increase in activity result is on record as “◯”.

In turn, “KT-MQSGGTFGTFMAIGMGIR [Peptide 5878-d60M]” showed an Increase in activity of 0.

“KTMM-SGGTFGTFMAIGMGIR [Peptide 5878-4620]” displayed an Increase in activity of 0.

Consider “KTMMQS-GTFGTFMAIGMGIR [Peptide 5878-d64G]”, for which the Increase in activity stood at 0.

“KTMMQSGG-FGTFMAIGMGIR [Peptide 5878-d66T]”: the Increase in activity is reported as 0.

For “KTMMQSGGTF-TFMAIGMGIR [Peptide 5878-d68G]”, the Increase in activity stood at 0.

As for “KTMMQSGGTFGTFMAI-MGIR [Peptide 5878-d74G]”, the Increase in activity came out at 0.

In turn, “KTMMQSGGTFGTFMAIG-GIR [Peptide 5878-d75M]” showed an Increase in activity of 0.

Regarding “KTMMQSGGTFGTFMAIGM-IR [Peptide 5878-d76G]”, the Increase in activity came to 0.

For the substance “KTMMQSGGTFGTFMAIGMGIRKK [Peptide 5878-KK]”, the Increase in activity entry is recorded as “◯”.

For the substance “KTMMQSGGTFGTFMAIGMGIRRRR [Peptide 5878-3R]”, the Increase in activity result is listed as “◯”.

With TKMMKKGGKFGTFMAIGMGIR [Peptide K4-K58T], the Increase in activity result is recorded as “◯”.

For another assay, the system named is CRPA. Briefly: Minimum bactericidal concentration (MBC) assay. The note with it: Tables 11-21, no unit printed. It is filed as cell-based. Further details: unit: µg/mL.
For “KKMMKKGGKFGTFMAIGMG-R [Peptide 5878-K4-d77I]”, the MBC CRPA stood at 6 µg/mL.

Substance “KKMMKKGGKFGTFMAIGMGI- [Peptide 5878-K4-78R]” displayed an MBC CRPA of 8 µg/mL.

The substance “KKMMKKGGTFGTFMAIGMGIR [KU-5878-K3 (T59K, Q62K, S63K)]” returned an MBC CRPA of 4 µg/mL.

The substance “KKMMKSGGTFGTFMAIGMGIR [KU-5878-K2(T59K, Q62K)]” registered an MBC CRPA of 6 µg/mL.

For the substance KKMMQSGGTFGTFMAIGMGIR [KU-5878-T59K], the MBC CRPA was 50 µg/mL.

Turning to “KT-MQSGGTFGTFMAIGMGIR [Peptide 5878-d60M]”, the MBC CRPA is 90 µg/mL.

Substance “KTMM-SGGTFGTFMAIGMGIR [Peptide 5878-4620]” showed an MBC CRPA of 100 µg/mL.

As for “KTMMQS-GTFGTFMAIGMGIR [Peptide 5878-d64G]”, the MBC CRPA is 110 µg/mL.

In turn, “KTMMQSGG-FGTFMAIGMGIR [Peptide 5878-d66T]” yielded an MBC CRPA of 100 µg/mL.

The substance “KTMMQSGGTF-TFMAIGMGIR [Peptide 5878-d68G]” showed an MBC CRPA of 18 µg/mL.

Substance “KTMMQSGGTFGTFMAI-MGIR [Peptide 5878-d74G]” yielded an MBC CRPA of 30 µg/mL.

The substance “KTMMQSGGTFGTFMAIG-GIR [Peptide 5878-d75M]” yielded an MBC CRPA of 100 µg/mL.

Take “KTMMQSGGTFGTFMAIGM-IR [Peptide 5878-d76G]”: the MBC CRPA is 90 µg/mL.

The substance “KTMMQSGGTFGTFMAIGMGIRKK [Peptide 5878-KK]” gave an MBC CRPA of 16 µg/mL.

Substance “KTMMQSGGTFGTFMAIGMGIRRRR [Peptide 5878-3R]” gave an MBC CRPA of 8 µg/mL.

For the substance TKMMKKGGKFGTFMAIGMGIR [Peptide K4-K58T], the “MBC CRPA” value stood at 3.

Another assay concerns Staphylococcus aureus (ATCC 29213). Briefly: Minimum bactericidal concentration (MBC) assay. It is filed as cell-based. Also noted: MBC Staphylococcus aureus: unit: µg/mL. The note with it: Tables 11-21, no unit printed. The procedure, abridged:
as §1
“KKMMKKGGKFGTFMAIGMG-R [Peptide 5878-K4-d77I]” yielded an MBC Staphylococcus aureus of 7 µg/mL.

As to “KKMMKKGGKFGTFMAIGMGI- [Peptide 5878-K4-78R]”, the MBC Staphylococcus aureus was 10 µg/mL.

Substance “KKMMKKGGTFGTFMAIGMGIR [KU-5878-K3 (T59K, Q62K, S63K)]” returned an MBC Staphylococcus aureus of 4 µg/mL.

Consider “KKMMKSGGTFGTFMAIGMGIR [KU-5878-K2(T59K, Q62K)]”, for which the MBC Staphylococcus aureus worked out at 8 µg/mL.

In turn, KKMMQSGGTFGTFMAIGMGIR [KU-5878-T59K] gave an MBC Staphylococcus aureus of 40 µg/mL.

The substance “KT-MQSGGTFGTFMAIGMGIR [Peptide 5878-d60M]” returned an MBC Staphylococcus aureus of 90 µg/mL.

For the substance “KTMM-SGGTFGTFMAIGMGIR [Peptide 5878-4620]”, the MBC Staphylococcus aureus stood at 90 µg/mL.

Substance “KTMMQS-GTFGTFMAIGMGIR [Peptide 5878-d64G]” returned an MBC Staphylococcus aureus of 100 µg/mL.

With “KTMMQSGG-FGTFMAIGMGIR [Peptide 5878-d66T]”, the MBC Staphylococcus aureus was 90 µg/mL.

In turn, “KTMMQSGGTF-TFMAIGMGIR [Peptide 5878-d68G]” came in with an MBC Staphylococcus aureus of 20 µg/mL.

In the case of “KTMMQSGGTFGTFMAI-MGIR [Peptide 5878-d74G]”, the MBC Staphylococcus aureus amounted to 25 µg/mL.

The substance “KTMMQSGGTFGTFMAIG-GIR [Peptide 5878-d75M]” had an MBC Staphylococcus aureus of 100 µg/mL.

For “KTMMQSGGTFGTFMAIGM-IR [Peptide 5878-d76G]”, the MBC Staphylococcus aureus was determined as 70 µg/mL.

In turn, “KTMMQSGGTFGTFMAIGMGIRKK [Peptide 5878-KK]” displayed an MBC Staphylococcus aureus of 16 µg/mL.

“KTMMQSGGTFGTFMAIGMGIRRRR [Peptide 5878-3R]” had an MBC Staphylococcus aureus of 8 µg/mL.

Take TKMMKKGGKFGTFMAIGMGIR [Peptide K4-K58T]: the “MBC Staphylococcus aureus” value was found to be 3.

Values taken from patent US12115209B2, “ROMO1-derived antimicrobial peptides including lysine substitution and variants thereof” (KOREA UNIVERSITY RESEARCH AND BUSINESS FOUNDATION, priority 2019, dated 2024).
